Measurements reported in patent publication US5696229A, “Polypeptide with laminin cell adhesion and morphogenesis activity” (The University of Virginia Patent Foundation, priority 1995, dated 1997).
Blank lines part the entries; values can stand above or below the molecule they belong to. Peptide text beside a SMILES is read from it.

How the values were obtained:
[1] = test system: HT1080 human fibrosarcoma cells; assay: Cell adhesion studies, HT1080 cells on coated plates (Example 1); assay type: cell-based
Protocol: (§1) Plates coated overnight (4° C.) with equimolar amounts of laminin, laminin fragment, or synthetic peptide were blocked with 1% BSA (Sigma Chemical Co.) for 4 h (4° C.) and cells were subsequently added (2×10^4 /well) in serum-free media and incubated for 60 min (37° C.) according to the method of Aumailey and Timpl (1986). Inhibition studies were carried out by preincubating cells for 30 min (37°; gentle agitation every 5 min) with equimolar amounts of soluble fragment or peptide. Cells, together with soluble inhibitor, were then added to the coated plates. After a 60-min (37° C.) incubation, plates were washed twice with PBX, fixed with 1% glutarldehyde (Electron Microscopy Service Laboratories, Westmount, N.J.), PBS, washed, stained with 0.1% crystal violet (Serra Biochemicals, Hauppauge, N.Y.), washed twice with distilled water, solubilized in 0.5% Triton X-100 (Sigma Chemical Co.), and read on an ELISA plate reader (Molecular Devices Corp., Menio Park, Calif.) equipped with a 595-nm filter.

type II alveolar cells [2] = assay type: cell-based, rat; settings: for Area: Table II, laminin A chain synthetic peptide preincubated with cells before plating on BMS, None = 108 ± 23; for Inhibition of alveolar formation by soluble laminin fragment or peptide: preincubated with cells prior to plating on BMS, day five; for Area (of cellular structures): cells plated on 1.8 mg/cm^2 gelled protein substrate, 5 d, mean ± SD, alveoli defined as > 20 × 10^3 um^2; for Alveolar formation on substrate: cells plated on equal milligram amounts of gelled substrate
Source text: Type II alveolar cells were isolated from 250-g Sprague Dawley rats (Hilltop Laboratory Animals, Inc.) according to the method of Rannels (Rannels and Rannels, 1988). Briefly, an initial cardiac perfusion with 0.9% saline was followed by instillation of the airways with 0.1% elastase (Calbiochem Corp., La Jolla, Calif.) in Joklik's modified minimal medium (JMEM) containing 0.05% BaSO4. Elastase was inactivated by instillation of JMEM containing soybean trypsin inhibitor (0.08%; Sigma Chemical Co., St. Louis, Mo.), DNase (0.08%. Sigman Chemical Co.), and 50% newborn calf serum (GIBCO BRL, Gaithersburg, Md.). Lung tissue was minced, vortexed, and filtered through 160-μm nylon mesh (Tetko, Elmsford, N.Y.). Released cells were centrifuged for 10 min at 500 g, resuspended in JMEM containing 0.08% DNAse, and layered on a Percoll (Pharmacia Fine Chemicals) discontinuous density gradient. After centrifugation for 20 min (4° C.) , cells were collected at the 1.04/1.08 interface, washed in JMEM, brought up in DME containing 10% fetal bovine serum (FBS) (GIBCO BRL), and incubated for 30 min (37° C.) in 75-cm^2 tissue culture flasks to eliminate contaminating macrophage cells which rapidly adhere to the plastic surface. The resultant type II alveolar cell preparations were 95% viable as determined by trypan blue exclusion; purity was 93% as assessed by the presence of lamellar bodies visible with Hoffman optics at a magnification of 40 and by tannic acid staining. Analysis of total cellular DNA/well on each day of an experiment was performed in triplicate on trypsin/disease released cells using a DNA fluorometry assay (Labarca and Paigen, 1980).
Freshly isolated type II alveolar cells were plated in 96-well plates at 20×10^3 cells/well on 500 μg/well (1.8 mg/cm^2) of gelled BMS of collagen I. Cells were cultured over 5 d with on media change performed on day three. Alveolar formation was analyzed at 24-h intervals over 5 d from photographic negatives (4×original magnification of central portion of each well) of triplicate wells. Images from negatives were transferred via video camera to an Image I imaging system (Universal Imaging Corp., West Chester, Pa.) and viewed on a color video monitor. The area of cellular structures was then determined and expressed as the mean±standard deviation. In some cases two size categories were distinguished: (a) single cells (200-300 μm^2) and (b) model alveoli (20×10^3 μm^2 or greater) with data expressed as percent of area occupied by each category.
(§2) In alveolar inhibition studies, antibodies (50 μg/well) were incubated with gelled BMS (500 μg/well) in wells of 96-well plates for 60 min at 37° C. Unbound antibody was removed by three DME washes (200 μl/well) and then freshly isolated cells were added. Dose-response assays were performed on all antibodies. Laminin fragments and synthetic peptides (micromolar amount indicated on figures) were preincubated with freshly isolated type II alveolar cells in suspension for 30 min at 37° C. with gentle agitation every 5 min; cells together with fragment or peptide were then plated on BMS. Cell viability in the presence of each antibody, fragment, or synthetic peptide was accessed using the MTT (3-[4,5-dimethylthiazol-2-yl]-2,5-diphenyl tetrazolium bromide) assay (Chemicon International, Inc. Temecula, Calif.).

type II alveolar cells [3] = assay type: cell-based, rat
Protocol: as §2

type II alveolar cells [4] = assay: Cell adhesion studies, type II alveolar cells on coated plates (Example 1); assay type: cell-based, rat; settings: coating 100 μM
Protocol: as §1

Molecule: O=C(O)CN(CCN(CC(=O)O)CC(=O)O)CC(=O)O [EDTA, reference compound]
Inhibition of HT1080 cell adhesion to SN-peptide ([1]; cells preincubated with inhibitor, coating and inhibitor 100 μM, EDTA 2 mM): inhibited

IC50 (type II alveolar cells [2]): 68 µM
Molecule: CC[C@H](C)[C@H](NC(=O)[C@@H](N)CO)C(=O)N[C@@H](CC(N)=O)C(=O)N[C@@H](CC(N)=O)C(=O)N[C@@H](CC(N)=O)C(=O)N[C@@H](CCCNC(=N)N)C(=O)O [SINNNR] (H-SINNNR-OH)

IC50 (type II alveolar cells [2]): 50 µM
Molecule: CC[C@H](C)[C@H](NC(=O)[C@H](CO)NC(=O)[C@H](Cc1c[nH]cn1)NC(=O)[C@H](Cc1c[nH]c2ccccc12)NC(=O)[C@H](CCCNC(=N)N)NC(=O)[C@H](CC(N)=O)NC(=O)[C@H](CC(N)=O)NC(=O)[C@H](CC(N)=O)NC(=O)[C@@H](NC(=O)[C@@H](N)CO)[C@@H](C)CC)C(=O)N[C@@H](Cc1ccc(O)cc1)C(=O)N[C@H](C(=O)N[C@H](C(=O)N[C@@H](CCCNC(=N)N)C(=O)N[C@@H](Cc1ccccc1)C(=O)NCC(=O)N[C@@H](CC(N)=O)C(=O)N[C@@H](CCSC)C(=O)NCC(=O)N[C@@H](CO)C(=O)O)[C@@H](C)O)[C@@H](C)CC [SN-peptide] (H-SINNNRWHSIYITRFGNMGS-OH)
Cell viability (type II alveolar cells [3]): 97±1%

Molecule: AASIKVAVSADR [peptide from mouse laminin A chain, antigen of ab-A[IK], reference compound]
Area (type II alveolar cells [2]): 98 ± 22 μm^2 × 10^3 | Inhibition of alveolar formation by soluble laminin fragment or peptide (type II alveolar cells [2]): no effect on alveolar formation

Molecule: AASVVIAKSADR [scrambled IKVAV control peptide, reference compound]
Area (type II alveolar cells [2]): 100 ± 18 μm^2 × 10^3 | Inhibition of alveolar formation by soluble laminin fragment or peptide (type II alveolar cells [2]): no effect on alveolar formation

Molecule: Collagen IV: Mouse collagen IV
Area (of cellular structures) (type II alveolar cells [2]): 0.4 ± 0.2 μm^2 × 10^3

Molecule: FGNMGS [carboxy-terminal 6-mer of SN-peptide from trypsin digestion]
Inhibition of alveolar formation by soluble laminin fragment or peptide (type II alveolar cells [2]): minimal

Molecule: KQNCLSSRASFRGCVRNLRLSR [reference compound]
Area (type II alveolar cells [2]): 110 ± 19 μm^2 × 10^3 | Inhibition of alveolar formation by soluble laminin fragment or peptide (type II alveolar cells [2]): no effect on alveolar formation

Molecule: Laminin: Mouse laminin, large cross-shaped cell adhesive heterotrimer
Area (of cellular structures) (type II alveolar cells [2]): 35 ± 3 μm^2 × 10^3 | Alveolar formation on substrate (type II alveolar cells [2]): alveoli formed only on laminin | Adhesion of type II alveolar cells to coated substrate (type II alveolar cells [4]): Adhesion | Percent cell attachment ([1]; HT1080 cells, substrate coated at 35 μM, mean ± SD): 80 ± 0.02%

Molecule: RGDS [functionally identical to RGDN, P1 fragment cell adhesion site, reference compound]
Area (type II alveolar cells [2]): 105 ± 24 μm^2 × 10^3 | Inhibition of alveolar formation by soluble laminin fragment or peptide (type II alveolar cells [2]): no effect on alveolar formation

Molecule: WHSIYITR [middle 8-mer of SN-peptide from trypsin digestion]
Inhibition of alveolar formation by soluble laminin fragment or peptide (type II alveolar cells [2]): partial

Molecule: collagen I: Rat tail collagen I, negative control substrate
Alveolar formation on substrate (type II alveolar cells [2]): completely ineffective

B1: Entactin: Mouse entactin purchased from Upstate Biotechnology (protein, UniProt P10493 29-1245, looked up)
Nidogen-1: LNRQELFPFGPGQGDLELEAGDDVVSPSLELIGELSFYDRTDITSVYVTTNGIIAMSEPPATEYHPGTFPPSFGSVAPFLADLDTTDGLGNVYYREDLSPFIIQMAAEYVQRGFPEVSFQPTSVVVVTWESVAPYGGPSSSPAEEGKRNTFQAVLASSNSSSYAIFLYPEDGLQFFTTFSKKDESQVPAVVGFSKGLVGFLWKSNGAYNIFANDRESIENLAKSSNAGHQGVWVFEIGSPATAKGVVSADVNLDLDDDGADYEDEDYDLVTSHLGLEDVATPSPSHSPRRGYPDPHNVPRILSPGYEATERPRGVPTERTRSFQLPAERFPQHHPQVIDVDEVEETGVVFSYNTGSQQTCANNRHQCSVHAECRDYATGFCCRCVANYTGNGRQCVAEGSPQRVNGKVKGRIFVGSSQVPVVFENTDLHSYVVMNHGRSYTAISTIPETVGYSLLPLAPIGGIIGWMFAVEQDGFKNGFSITGGEFTRQAEVTFLGHPGKLVLKQQFSGIDEHGHLTISTELEGRVPQIPYGASVHIEPYTELYHYSSSVITSSSTREYTVMEPDQDGAAPSHTHIYQWRQTITFQECAHDDARPALPSTQQLSVDSVFVLYNKEERILRYALSNSIGPVRDGSPDALQNPCYIGTHGCDSNAACRPGPGTQFTCECSIGFRGDGQTCYDIDECSEQPSRCGNHAVCNNLPGTFRCECVEGYHFSDRGTCVAAEDQRPINYCETGLHNCDIPQRAQCIYMGGSSYTCSCLPGFSGDGRACRDVDECQHSRCHPDAFCYNTPGSFTCQCKPGYQGDGFRCMPGEVSKTRCQLEREHILGAAGGADAQRPTLQGMFVPQCDEYGHYVPTQCHHSTGYCWCVDRDGRELEGSRTPPGMRPPCLSTVAPPIHQGPVVPTAVIPLPPGTHLLFAQTGKIERLPLERNTMKKTEAKAFLHIPAKVIIGLAFDCVDKVVYWTDISEPSIGRASLHGGEPTTIIRQDLGSPEGIALDHLGRTIFWTDSQLDRIEVAKMDGTQRRVLFDTGLVNPRGIVTDPVRGNLYWTDWNRDNPKIETSHMDGTNRRILAQDNLGLPNGLTFDAFSSQLCWVDAGTHRAECLNPAQPGRRKVLEGLQYPFAVTSYGKNLYYTDWKTNSVIAMDLAISKEMDTFHPHKQTRLYGITIALSQCPQGHNYCSVNNGGCTHLCLPTPGSRTCRCPDNTLGVDCIERK
Area (of cellular structures) (type II alveolar cells [2]): 1 ± 0.5 μm^2 × 10^3
